Results published in patent US12605369B2, “Amido-substituted heterocyclic compounds and methods of use thereof for the treatment of herpes viruses” (Merck Sharp & Dohme LLC, priority 2019, dated 2026).
Like-named read-outs stand apart in the source and are kept apart here.

Assays:
HSV-2 Strain G = experiment: Viral qPCR assay, HSV-2 (Example 14); type: cell-based; settings: Strain G in Vero or MRCS cells, 0.004-0.4 pfu/cell, viral genome copy number by qPCR, read-out: HSV2 Cell EC50
Protocol: (§1) MRCS and Vero cells were obtained from ATCC and were maintained at 37° C./5% CO2/90% relative humidity in Minimal Essential Medium with 10% fetal bovine serum, […], 100 units/mL penicillin and 100 ug/mL streptomycin. Assay plates were prepared by dispensing compounds dissolved in DMSO into wells of 384 well collagen-coated plates using an ECHO acoustic dispenser. Each test compound was tested in a 10-point, serial 3-fold dilution. Controls included uninfected cells and infected cells treated only with DMSO. Assays were initiated by mixing selected cells, in suspension, with virus, and dispensing 50 μl/well infected cells to pre-plated compounds. Plates were incubated at 37° C./5% CO2/90% relative humidity for ˜72 hours to permit genomic replication, and infected cells were lysed by the addition of an equal volume of lysis buffer (10 mM Tris-HCl, pH8, 50 mM KCl, 2 mM MgCl2, 0.45% NP-40, 0.45% Tween-20, and 100 μg/mL proteinase K). An aliquot of the lysate was then transferred to a 384-well PCR plate and incubated at 56° C. for 1 hour, and then at 95° C. for 10 minutes. Levels of a viral gene were measured in 10 ul qPCR assays using TaqMan® Gene Expression Master Mix (Applied Biosystems) and an 7900HT Fast Real-Time PCR System with 384-Well Block Module. 7-point, serial 10-fold dilutions of a plasmid standard were run on each plate to generate a standard curve, and genome copies numbers were calculated by plotting experimental Ct onto linear regression of the standard curve. Compound effects on viral genome copy number were normalized to the window defined by the controls. Calculated % effects were fit using a 4-parameter algorithm, and EC50 was reported. • HCMV: Strain AD169 was assayed in MRC-5 cells and was used at 0.05-0.1 pfu/cell. The assays were performed in either growth media or in the same media with 50% fetal bovine serum. Primer-probe set was Thermo Fisher Assay ID=AIFATFK. • HSV-1: Strain F was assayed in Vero or MRCS cells and was used at 0.0005-0.004 pfu/cell in growth medium. Primer-probe set was Thermo Fisher Assay ID=AIBJZIB. • HSV-2: Strain G was assayed in Vero or MRCS cells and was used at 0.004-0.4 pfu/cell in growth medium. Primer-probe set was Thermo Fisher Assay ID=AICSXOJ.

HCMV Strain AD169 = experiment: Viral qPCR assay, HCMV (Example 14); type: cell-based
Protocol: as §1

HSV-1 Strain F = experiment: Viral qPCR assay, HSV-1 (Example 14); type: cell-based; settings: Strain F in Vero or MRCS cells, 0.0005-0.004 pfu/cell, viral genome copy number by qPCR, read-out: HSV1 Cell EC50
Protocol: as §1

[1] = target: T1, Human cytomegalovirus DNA polymerase (Human cytomegalovirus, UniProt P08546); experiment: CMV polymerase assay (AlphaLISA, Example 15); type: biochemical; settings: HCMV polymerase 0.2 nM; 30 min pre-incubation; 60 min at 37° C.
T1 construct: made in house; host or cells: SF21 insect cells (baculovirus vector)
T1 sequence (P08546 whole entry): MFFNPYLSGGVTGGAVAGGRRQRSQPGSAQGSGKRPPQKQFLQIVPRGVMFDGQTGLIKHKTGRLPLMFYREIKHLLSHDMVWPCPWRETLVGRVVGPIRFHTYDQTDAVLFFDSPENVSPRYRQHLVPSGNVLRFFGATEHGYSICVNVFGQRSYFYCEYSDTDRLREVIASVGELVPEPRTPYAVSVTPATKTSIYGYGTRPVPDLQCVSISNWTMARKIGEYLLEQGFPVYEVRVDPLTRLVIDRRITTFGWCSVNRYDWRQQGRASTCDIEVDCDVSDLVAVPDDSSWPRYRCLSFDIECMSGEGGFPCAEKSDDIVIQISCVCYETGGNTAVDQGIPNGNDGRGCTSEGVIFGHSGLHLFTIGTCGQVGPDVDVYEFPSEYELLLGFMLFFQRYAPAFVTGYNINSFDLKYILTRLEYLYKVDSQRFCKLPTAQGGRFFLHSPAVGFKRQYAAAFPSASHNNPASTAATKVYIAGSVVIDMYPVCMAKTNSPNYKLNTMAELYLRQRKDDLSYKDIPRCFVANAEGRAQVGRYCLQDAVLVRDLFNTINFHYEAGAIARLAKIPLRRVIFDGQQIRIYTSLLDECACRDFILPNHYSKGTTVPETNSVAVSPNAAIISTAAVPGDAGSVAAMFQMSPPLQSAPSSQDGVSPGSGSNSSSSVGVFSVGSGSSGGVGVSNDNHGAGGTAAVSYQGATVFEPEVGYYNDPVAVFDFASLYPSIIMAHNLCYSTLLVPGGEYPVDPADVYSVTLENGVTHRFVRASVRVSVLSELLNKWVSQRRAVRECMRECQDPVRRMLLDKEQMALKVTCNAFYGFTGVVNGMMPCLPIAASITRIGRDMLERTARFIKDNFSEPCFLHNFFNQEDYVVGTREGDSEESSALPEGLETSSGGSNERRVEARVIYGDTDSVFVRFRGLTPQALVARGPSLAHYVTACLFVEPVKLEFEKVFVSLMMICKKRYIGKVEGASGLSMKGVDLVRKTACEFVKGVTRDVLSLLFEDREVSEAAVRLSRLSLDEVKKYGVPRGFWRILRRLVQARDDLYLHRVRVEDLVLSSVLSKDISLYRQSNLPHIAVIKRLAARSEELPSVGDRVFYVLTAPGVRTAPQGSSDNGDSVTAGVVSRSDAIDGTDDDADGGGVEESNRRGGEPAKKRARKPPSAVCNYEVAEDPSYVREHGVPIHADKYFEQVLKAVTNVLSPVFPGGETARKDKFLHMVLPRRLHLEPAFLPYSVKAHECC
Protocol: (§2) CMV and VZW Polymerase Assays
(§3) Human cytomegalovirus and varicella zoster virus DNA polymerases were expressed via baculovirus vector in SF21 cells and purified. Heterodimeric nucleic acid substrate used in the herpesvirus polymerase reactions were generated by annealing a 59-mer template to a 17-mer digoxigenin-labeled primer. Polymerase (HCMV final concentration of 0.2 nM; VZV final concentration of 0.4 nM) was combined with an inhibitor compound or DMSO in assay buffer (10 mM HEPES, pH 7.5, 25 mM KCl, 25 mM NaCl, 5 mM MgCl2, 5% glycerol, 0.67 mg/ml bovine serum albumin, and 1 mM tris(2-carboxyethyl)phosphine)), and this mixture was pre-incubated for 30 minutes at room temperature in 384-well microtiter plates. The polymerization reaction was initiated by the addition of template/primer substrate (final concentration: 1.6 nM) and dNTPs (final concentration: 24 nM dCTP, 24 nMdGTP, 16 nM dATP, 16 nM dTTP, and 0.8 nM biotin-dUTP). After a 60 minute incubation period at 37° C., the reactions were terminated using quench buffer (25 mM HEPES pH 7.5, 100 mM NaCl, 0.25% Tween-20, 12 mM EDTA, and 1 mg/ml bovine serum albumin). Incorporation of biotinylated UTP was detected with 2.5-5 μg/mL anti-DIG AlphaLISA acceptor beads and 5-10 μg/mL streptavidin AlphaLISA donor beads (PerkinElmer). Compound effects were normalized to the window defined by the controls (DMSO only and pre-quenched wells) and were fit using a 4-parameter algorithm to report an IC50.

[2] = target: T2, varicella zoster virus DNA polymerase (Varicella-zoster virus, UniProt P09252); experiment: VZV polymerase assay (AlphaLISA, Example 15); type: biochemical; settings: VZV polymerase 0.4 nM; 30 min pre-incubation; 60 min at 37° C.
T2 construct: made in house; host or cells: SF21 insect cells (baculovirus vector)
T2 sequence (P09252 whole entry): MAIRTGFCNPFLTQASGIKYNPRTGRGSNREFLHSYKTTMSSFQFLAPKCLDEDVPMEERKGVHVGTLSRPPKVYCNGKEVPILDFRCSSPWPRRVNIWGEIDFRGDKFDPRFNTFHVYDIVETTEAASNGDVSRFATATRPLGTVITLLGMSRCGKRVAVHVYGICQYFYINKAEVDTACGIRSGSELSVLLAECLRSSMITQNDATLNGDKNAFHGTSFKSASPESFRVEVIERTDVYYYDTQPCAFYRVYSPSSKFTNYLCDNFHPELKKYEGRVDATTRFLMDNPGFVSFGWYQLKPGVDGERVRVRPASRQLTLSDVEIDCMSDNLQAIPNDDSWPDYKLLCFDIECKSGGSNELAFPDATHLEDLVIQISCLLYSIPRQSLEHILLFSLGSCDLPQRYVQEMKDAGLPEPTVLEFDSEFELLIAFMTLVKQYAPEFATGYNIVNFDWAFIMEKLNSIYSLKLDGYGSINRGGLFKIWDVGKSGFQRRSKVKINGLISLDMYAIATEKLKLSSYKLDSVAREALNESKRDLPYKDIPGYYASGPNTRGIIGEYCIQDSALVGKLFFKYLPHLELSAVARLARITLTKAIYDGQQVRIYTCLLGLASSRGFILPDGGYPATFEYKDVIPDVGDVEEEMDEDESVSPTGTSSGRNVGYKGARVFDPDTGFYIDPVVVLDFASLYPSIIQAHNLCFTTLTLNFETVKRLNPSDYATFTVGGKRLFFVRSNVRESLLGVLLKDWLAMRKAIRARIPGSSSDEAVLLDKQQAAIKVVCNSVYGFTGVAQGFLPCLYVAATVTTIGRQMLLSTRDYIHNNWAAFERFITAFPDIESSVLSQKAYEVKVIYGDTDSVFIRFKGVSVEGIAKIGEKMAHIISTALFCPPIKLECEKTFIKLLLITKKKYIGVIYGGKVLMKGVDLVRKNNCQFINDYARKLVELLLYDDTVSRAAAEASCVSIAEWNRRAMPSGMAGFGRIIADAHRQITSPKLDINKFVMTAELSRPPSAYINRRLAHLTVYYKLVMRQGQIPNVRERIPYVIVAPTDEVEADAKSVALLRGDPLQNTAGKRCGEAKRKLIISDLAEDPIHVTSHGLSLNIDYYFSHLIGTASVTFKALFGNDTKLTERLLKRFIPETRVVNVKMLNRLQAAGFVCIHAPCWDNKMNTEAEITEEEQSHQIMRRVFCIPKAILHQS
Protocol: as §2, §3

[3] = Human alphaherpesvirus 2, Vero, 72 h
[4] = Human betaherpesvirus 5, AD169, MRC5, 72 h, Strain AD169 in MRC-5 cells, 0.05-0.1 pfu/cell, ~72 hours, viral genome copy number by qPCR, growth media or 50% fetal bovine serum, read-out: CMV Cell EC50
[5] = Human alphaherpesvirus 1, Vero, 72 h
[6] = Strain AD169 in MRC-5 cells, 0.05-0.1 pfu/cell, ~72 hours, viral genome copy number by qPCR, growth media or 50% fetal bovine serum, read-out: CMV Cell EC50

SMILES | EC50 (HSV-2 Strain G; [3]) | EC50 (HCMV Strain AD169; [4]) | EC50 (HSV-1 Strain F; [5]) | IC50 [1] | IC50 [2] | EC50 (HSV-2 Strain G; ~72 hours) | EC50 (HCMV Strain AD169; [6]) | EC50 (HSV-1 Strain F; ~72 hours) | EC50 (HCMV Strain AD169; Human betaherpesvirus 5, AD169, MRC5, 72 h, read-out: CMV Cell EC50 (nM))
COc1nc(N2CCN(c3ccc(Cl)cc3)C2=O)ccc1C[C@H]1COC(=O)N1 [Compound 10] | 291 nM | 522 nM | 282 nM | 14 nM | – | – | – | – | –
COc1nc(NC(=O)C2CCc3cc(Cl)ccc3O2)ccc1C[C@H]1COC(=O)N1 (stereo partly shown) [Compound 18] | 148 nM | 435 nM | 128 nM | 1.4 nM | 1 nM | – | – | – | –
COc1nc(NC(=O)C2(C)CCc3cc(C#N)ccc3O2)ccc1C[C@H]1COC(=O)N1 (stereo partly shown) [Compound 33] | – | – | – | – | – | 11100 nM | 1660 nM | 8920 nM | –
COc1nc(NC(=O)C2CCc3cc(C#N)ccc3O2)ccc1C[C@H]1COC(=O)N1 (stereo partly shown) [Compound 23] | 56 nM | 38 nM | 44 nM | 0.4 nM | 0.4 nM | – | – | – | –
COc1nc(NC(=O)C2CN(C)c3cc(C#N)ccc3O2)ccc1C[C@H]1COC(=O)N1 (stereo partly shown) [Compound 26] | – | – | – | – | – | 73 nM | 39 nM | 60 nM | –
COc1nc(N2CCC(c3ccc(C#N)cc3)C2=O)ccc1C[C@H]1COC(=O)N1 (stereo partly shown) [Compound 20] | 132 nM | 120 nM | 124 nM | 6 nM | 5 nM | – | – | – | –
COc1nc(N2CCN(c3ccc(C#N)cc3)C2=O)ccc1C[C@H]1COC(=O)N1 [Compound 21] | 90 nM | 369 nM | 309 nM | 29 nM | – | – | – | – | –
COc1nc(N2CCC(F)(c3ccc(C#N)cc3)C2=O)ccc1C[C@H]1COC(=O)N1 (single isomer, unassigned) [Compound 8] | 884 nM | 434 nM | 958 nM | 10 nM | 34 nM | – | – | – | –
COc1nc(NC(=O)Cc2ccc(C(F)(F)F)c(F)c2)ccc1C[C@H]1COC(=O)N1 [Compound 14] | 134 nM | 486 nM | 281 nM | 11 nM | – | – | – | – | –
COc1nc(NC(=O)Cc2ccc(C#N)cc2)ccc1C[C@H]1COC(=O)N1 [Compound 13] | 191 nM | 128 nM | 300 nM | 22 nM | 8 nM | – | – | – | –
COc1nc(NC(=O)Cc2ccc(Cl)cc2CO)ccc1C[C@H]1COC(=O)N1 [Compound 3] | 504 nM | 178 nM | 396 nM | 12 nM | – | – | – | – | –
COc1nc(NC(=O)C2CCc3cc(C#N)ccc3C2)ccc1C[C@H]1COC(=O)N1 (stereo partly shown) [Compound 31] | – | – | – | – | – | 48400 nM | 11100 nM | 70100 nM | –
COc1nc(NC(=O)C2(C)CCc3cc(C#N)ccc3O2)ccc1C[C@H]1COC(=O)N1 (stereo partly shown) [Compound 34] | – | – | – | – | – | > 80200 nM | 39800 nM | > 80200 nM | –
COc1nc(N2CCN(Cc3ccc(C#N)cc3)C2=O)ccc1C[C@H]1COC(=O)N1 [Compound 22] | 100 nM | 318 nM | 131 nM | 35 nM | – | – | – | – | –
COc1nc(NC(=O)C2Cc3ccc(C#N)cc3CN2)ccc1C[C@H]1COC(=O)N1 (stereo partly shown) [Compound 36] | – | – | – | – | – | 11100 nM | 1660 nM | 1940 nM | –
COCc1cc(Cl)ccc1CC(=O)Nc1ccc(C[C@H]2COC(=O)N2)c(OC)n1 [Compound 5] | 318 nM | 116 nM | 166 nM | 12 nM | 18 nM | – | – | – | –
COc1nc(NC(=O)[C@@H]2Cc3ccc(C#N)cc3CN2C)ccc1C[C@H]1COC(=O)N1 [Compound 28] | 802 nM | 175 nM | 381 nM | – | – | – | – | – | –
COc1nc(NC(=O)C2Cc3ccc(C#N)cc3CN2)ccc1C[C@H]1COC(=O)N1 (stereo partly shown) [Compound 35] | – | – | – | – | – | 583 nM | 206 nM | 252 nM | –
COc1nc(NC(=O)C2CCc3cc(C#N)ccc3N2C)ccc1C[C@H]1COC(=O)N1 (stereo partly shown) [Compound 30] | – | – | – | – | – | 10700 nM | 2720 nM | 7440 nM | –
COc1nc(NC(=O)N2Cc3ccc(Cl)cc3C2)ccc1C[C@H]1COC(=O)N1 [Compound 12] | – | > 9900 nM | – | 3770 nM | 4820 nM | – | – | – | –
COc1nc(NC(=O)C2CCc3cc(Cl)ccc32)ccc1C[C@H]1COC(=O)N1 (stereo partly shown) [Compound 17] | 99 nM | 133 nM | 127 nM | 23 nM | – | – | – | – | –
COc1nc(NC(=O)Cc2ccc(Cl)cc2COCc2ccccc2)ccc1C[C@H]1COC(=O)N1 [Compound 2] | – | 3550 nM | – | 108 nM | – | – | – | – | –
COc1nc(NC(=O)C2CCc3cc(C#N)ccc3N2C)ccc1C[C@H]1COC(=O)N1 (stereo partly shown) [Compound 29] | – | – | – | – | – | 4990 nM | 345 nM | 3510 nM | –
COc1nc(NC(=O)C2CCc3cc(C#N)ccc3C2)ccc1C[C@H]1COC(=O)N1 (stereo partly shown) [Compound 32] | – | – | – | – | – | 173 nM | 73 nM | 117 nM | –
COc1nc(N2CCN(c3ccc(C#N)c(F)c3)C2=O)ccc1C[C@H]1COC(=O)N1 [Compound 11] | – | – | – | 30 nM | – | – | – | – | 596 nM
COc1nc(NC(=O)C2CN(C)c3cc(C#N)ccc3O2)ccc1C[C@H]1COC(=O)N1 (stereo partly shown) [Compound 27] | – | – | – | – | – | 12900 nM | 10600 nM | 62000 nM | –
